These results are taken from PMC7932537, “Quantitative profiling of protease specificity” (PLoS Computational Biology, 2021).

For assay [1], the target named is T1, MMP-2 (Homo sapiens, UniProt P08253).
T1 sequence (P08253 110-660): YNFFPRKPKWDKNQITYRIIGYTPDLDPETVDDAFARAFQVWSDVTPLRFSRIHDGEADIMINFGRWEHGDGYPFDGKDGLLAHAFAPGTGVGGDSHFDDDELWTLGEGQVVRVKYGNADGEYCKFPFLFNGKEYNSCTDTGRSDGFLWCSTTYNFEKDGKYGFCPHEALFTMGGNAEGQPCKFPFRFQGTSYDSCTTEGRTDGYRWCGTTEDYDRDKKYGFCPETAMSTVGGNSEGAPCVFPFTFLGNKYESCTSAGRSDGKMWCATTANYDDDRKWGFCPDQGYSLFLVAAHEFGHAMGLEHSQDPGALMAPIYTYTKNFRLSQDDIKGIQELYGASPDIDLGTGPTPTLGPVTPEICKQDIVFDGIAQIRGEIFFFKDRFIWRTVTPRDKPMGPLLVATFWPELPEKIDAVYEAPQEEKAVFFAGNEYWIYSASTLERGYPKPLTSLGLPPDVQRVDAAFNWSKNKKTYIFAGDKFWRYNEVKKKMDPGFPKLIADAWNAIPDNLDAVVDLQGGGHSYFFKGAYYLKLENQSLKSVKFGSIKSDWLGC
Description: K(obs) of individual phage substrates (set of 1369). The following applies: MMP2. The class given is biochemical.

The target of the next assay is MMP-9 (Homo sapiens, UniProt P14780). Described as above. The class given is biochemical. The following applies: MMP9.
Assay [2] has as its system MMP-2. In words: Substrate phage display with NGS: relative probability (RP) of P3-P1' tetramer clusters.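 Further: ratio of tetramer probability after protease selection to that in naive phage library.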 The class given is biochemical, human. The following applies: MMP2.
Where [3] appears, read: individual phage substrates, set of 1369 peptides, cleavage position marked by hyphen in sequence.
[4] abbreviates: individual phage substrates, set of 1369 peptides, hyphen in sequence marks cleavage position.
Setting [5] is: RP of the P3-P1' tetramer contained in the substrate (substrate phage display with NGS).
[6] abbreviates: individual phage substrate of the set of 1369 peptides, cleavage position marked by '-'.
[7] abbreviates: individual phage substrate of the set of 1369 peptides, dash in the sequence marks the cleavage position.
Where [8] appears, read: RP of the P3-P1' tetramer contained in the substrate.

Chain of MMP-9 (P14780 94-707): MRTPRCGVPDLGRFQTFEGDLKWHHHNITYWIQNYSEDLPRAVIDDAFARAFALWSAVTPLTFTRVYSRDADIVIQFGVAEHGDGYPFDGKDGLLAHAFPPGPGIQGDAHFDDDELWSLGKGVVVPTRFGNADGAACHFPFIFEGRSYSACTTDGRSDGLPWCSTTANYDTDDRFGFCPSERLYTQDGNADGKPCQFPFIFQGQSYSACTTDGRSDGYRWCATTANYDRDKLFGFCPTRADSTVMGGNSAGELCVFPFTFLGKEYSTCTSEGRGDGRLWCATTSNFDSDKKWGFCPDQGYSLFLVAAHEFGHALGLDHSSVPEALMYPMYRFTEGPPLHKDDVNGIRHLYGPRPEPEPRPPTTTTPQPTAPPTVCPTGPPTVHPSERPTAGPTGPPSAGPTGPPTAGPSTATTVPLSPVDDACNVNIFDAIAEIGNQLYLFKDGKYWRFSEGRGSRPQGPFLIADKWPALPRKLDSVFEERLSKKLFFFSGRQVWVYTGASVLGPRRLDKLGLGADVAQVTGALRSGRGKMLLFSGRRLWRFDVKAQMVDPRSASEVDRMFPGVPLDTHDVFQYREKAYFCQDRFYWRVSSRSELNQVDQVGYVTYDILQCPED

Regarding SGLRH-LSNTA, the figures for the “Kobs” value at MMP-2 [1] (setting [3]) and on MMP-9 (setting [4]) were 386.839 M⁻¹ s⁻¹ and 762.325 M⁻¹ s⁻¹, respectively. Also, the “relative probability (RP)” value in the assay on MMP-2 [2] (setting [5]) is recorded as 22.7972.
As for SGLWY-LSATA, the “Kobs” value at MMP-2 [1] (setting [3]) came to 1196.62 M⁻¹ s⁻¹; on MMP-9 (setting [4]), 484.315 M⁻¹ s⁻¹. Besides, the “relative probability (RP)” value with MMP-2 [2] (setting [5]) is reported as 0.6796.
In the case of SGMAA-LKRTA, the Kobs came to 3741.87 M⁻¹ s⁻¹ on MMP-2 [1] (setting [6]) and 0 M⁻¹ s⁻¹ at MMP-9 (setting [7]). Further, the “relative probability (RP)” value in the assay with MMP-2 [2] (setting [8]) was 32.6562.
As to SGMGH-LLHTA, the Kobs on MMP-2 [1] (setting [6]) worked out at 654.784 M⁻¹ s⁻¹; on MMP-9 (setting [7]), 0 M⁻¹ s⁻¹. Further, the “relative probability (RP)” value in the assay with MMP-2 [2] (setting [8]) was 26.7019.
With SGPAA-LLGTA, the Kobs at MMP-2 [1] (setting [6]) was 8941.32 M⁻¹ s⁻¹; on MMP-9 (setting [7]), 12792.1 M⁻¹ s⁻¹. In the assay on MMP-2 [2] (setting [8]), the “relative probability (RP)” value stood at 35.8015.
In the case of SGPAR-LISTA, the “Kobs” value on MMP-2 [1] (setting [3]) and on MMP-9 (setting [4]) was 12792.1 M⁻¹ s⁻¹ each time. The “relative probability (RP)” value in the assay on MMP-2 [2] (setting [5]) was determined as 34.9166.
SGPAW-MKGTA: the “Kobs” value on MMP-2 [1] (setting [3]) stood at 9740.44 M⁻¹ s⁻¹; at MMP-9 (setting [4]), 7386.83 M⁻¹ s⁻¹. For the same substance, in the assay with MMP-2 [2] (setting [5]), the “relative probability (RP)” value amounted to 34.3571.
With SGPAY-WRTTA, the figures for the “Kobs” value at MMP-2 [1] (setting [3]) and on MMP-9 (setting [4]) were 12792.1 M⁻¹ s⁻¹ and 1610.61 M⁻¹ s⁻¹, respectively. Moreover, the “relative probability (RP)” value in the assay with MMP-2 [2] (setting [5]) is 27.2209.
The matching figures for SGPFF-LRKTA: 1239.69 M⁻¹ s⁻¹, 5090.5 M⁻¹ s⁻¹ and 12.8224.
Turning to SGPFH-LSRTA, the “Kobs” value on MMP-2 [1] (setting [3]) came to 84.609 M⁻¹ s⁻¹; at MMP-9 (setting [4]), 2280.5 M⁻¹ s⁻¹. Moreover, the “relative probability (RP)” value with MMP-2 [2] (setting [5]) was determined as 23.4724.
As for SGPFR-LNWTA, the “Kobs” value at MMP-2 [1] (setting [3]) amounted to 0 M⁻¹ s⁻¹; at MMP-9 (setting [4]) it was 1373.05 M⁻¹ s⁻¹. The “relative probability (RP)” value in the assay on MMP-2 [2] (setting [5]) came out at 16.3818.
As for SGPFY-LRNTA, the entries for the “Kobs” value at MMP-2 [1] (setting [3]) and at MMP-9 (setting [4]) were 2038.8 M⁻¹ s⁻¹ and 7815.03 M⁻¹ s⁻¹, respectively. In addition, the “relative probability (RP)” value in the assay with MMP-2 [2] (setting [5]) worked out at 17.7778.
For SGPHG-FFQTA, the Kobs at MMP-2 [1] (setting [6]) amounted to 171.876 M⁻¹ s⁻¹; on MMP-9 (setting [7]), 551.253 M⁻¹ s⁻¹. For the same substance, the “relative probability (RP)” value in the assay with MMP-2 [2] (setting [8]) was determined as 21.975.
For SGPHH-LTLTA, the Kobs is 1327.88 M⁻¹ s⁻¹ at MMP-2 [1] (setting [6]) and 1925.41 M⁻¹ s⁻¹ at MMP-9 (setting [7]). For the same substance, in the assay on MMP-2 [2] (setting [8]), the “relative probability (RP)” value turned out to be 27.4742.
For SGPKS-LVRTA, in that order: 12792.1 M⁻¹ s⁻¹, 12792.1 M⁻¹ s⁻¹ and 32.0343.
Regarding SGPKW-IIQTA, the Kobs stood at 2687.73 M⁻¹ s⁻¹ at MMP-2 [1] (setting [6]) and 12792.1 M⁻¹ s⁻¹ at MMP-9 (setting [7]). In addition, the “relative probability (RP)” value in the assay with MMP-2 [2] (setting [8]) stood at 22.5059.
In the case of SGPLG-IKSTA, the “Kobs” value on MMP-2 [1] (setting [3]) and at MMP-9 (setting [4]) was 12792.1 M⁻¹ s⁻¹ in each case. The “relative probability (RP)” value with MMP-2 [2] (setting [5]) is 33.936.
For SGPLG-IRYTA, the Kobs stood at 9740.44 M⁻¹ s⁻¹ at MMP-2 [1] (setting [6]) and 7815.03 M⁻¹ s⁻¹ on MMP-9 (setting [7]). Further, in the assay with MMP-2 [2] (setting [8]), the “relative probability (RP)” value came out at 33.936.
Regarding SGPLG-ITLTA, the “Kobs” value at MMP-2 [1] (setting [3]) and on MMP-9 (setting [4]) was 12792.1 M⁻¹ s⁻¹ in each case. Besides, the “relative probability (RP)” value with MMP-2 [2] (setting [5]) was found to be 33.936.
As for SGPLG-LSGTA, the Kobs on MMP-2 [1] (setting [6]) and on MMP-9 (setting [7]) was 12792.1 M⁻¹ s⁻¹ in each case. Moreover, the “relative probability (RP)” value in the assay on MMP-2 [2] (setting [8]) amounted to 35.3536.
In the case of SGPLG-YTVTA, the Kobs at MMP-2 [1] (setting [6]) and on MMP-9 (setting [7]) was 12792.1 M⁻¹ s⁻¹ in each case. For the same substance, in the assay on MMP-2 [2] (setting [8]), the “relative probability (RP)” value was found to be 33.1744.
As to SGPMA-LSRTA, the figures for the Kobs at MMP-2 [1] (setting [6]) and on MMP-9 (setting [7]) were 8321.48 M⁻¹ s⁻¹ and 12792.1 M⁻¹ s⁻¹, respectively. Also, the “relative probability (RP)” value with MMP-2 [2] (setting [8]) was 34.1737.
SGPMF-LWTTA: the Kobs was 1283.43 M⁻¹ s⁻¹ at MMP-2 [1] (setting [6]) and 10866.7 M⁻¹ s⁻¹ at MMP-9 (setting [7]). For the same substance, the “relative probability (RP)” value with MMP-2 [2] (setting [8]) was 18.5721.
On to SGPMR-LVTTA, for which the “Kobs” value is 1870.4 M⁻¹ s⁻¹ at MMP-2 [1] (setting [3]) and 4205.91 M⁻¹ s⁻¹ on MMP-9 (setting [4]). For the same substance, the “relative probability (RP)” value in the assay with MMP-2 [2] (setting [5]) stood at 20.4124.
For SGPNY-IRATA, the “Kobs” value on MMP-2 [1] (setting [3]) worked out at 7386.83 M⁻¹ s⁻¹; on MMP-9 (setting [4]) it was 12792.1 M⁻¹ s⁻¹. Moreover, the “relative probability (RP)” value in the assay with MMP-2 [2] (setting [5]) came out at 6.689.
SGPQS-WRTTA: the “Kobs” value on MMP-2 [1] (setting [3]) turned out to be 7815.03 M⁻¹ s⁻¹; at MMP-9 (setting [4]) it was 3165.09 M⁻¹ s⁻¹. In addition, in the assay on MMP-2 [2] (setting [5]), the “relative probability (RP)” value worked out at 25.7009.
With SGPQW-ITGTA, the Kobs at MMP-2 [1] (setting [6]) amounted to 7815.03 M⁻¹ s⁻¹; on MMP-9 (setting [7]), 12792.1 M⁻¹ s⁻¹. For the same substance, the “relative probability (RP)” value in the assay with MMP-2 [2] (setting [8]) is given as 28.1021.
